Laboratory results reported in patent US4866084A, “Topsentin compounds effective against viruses and certain tumors” (Harbor Branch Oceanographic Institution, Inc., priority 1988, dated 1989).
Values after ≈ are worked out from the molar mass of the structure shown. Like-named read-outs stand apart in the source and are kept apart here. Blank lines part the entries; values can stand above or below the molecule they belong to.

Assays:
[1] = system: Herpes simplex virus type 1 (HSV-1); experiment: Antiviral disc assay for HSV-1 (Table 3); type: cell-based, Herpes simplex type 1 (HSV-1)
Protocol: (§1) a. Herpes simplex type 1 (HSV-1) replicates in the CV-1 cell line. CV-1 is a fibroblast-like cell culture derived from primary African green monkey cells.
(§2) a. Dilute the cells with EMEM to 4×10^5 cells/ml.
(§3) b. See 24-well trays with 0.5 ml per well. Cell concentration is […] cells.
(§4) c. Incubate at 37 C. for 1.5 hours.
(§5) d. The wells can be used over the next several days beginning the day after seeding (preferably 2, 3, or 4).
(§6) a. Remove medium from wells.
(§7) b. Infect well with at least 25 and no more than 80 plaque forming units (PFU) of virus.
(§8) c. Incubate infected cells at 37 C. for 1.5 hrs.
(§9) d. Pour off supernatant at end of incubation period.
(§10) e. Add 0.5 ml of methylcellulose overlay medium (MCO). MCO is a maintenance medium without phenol red made with 1% 4000 centipose methylcellulose. FBS is used at 5% level.
(§11) a. For drug evaluation wet filter paper discs (6 mm dia.) with approx. 0.02 ml of test compound. Allow solvent to evaporate for 20-30 mins. at ambient temperature, then place discs in the well containing CV-1 cells, virus and MCO.
(§12) b. Incubate tissue culture plates for 48 hrs. at 37 C.
(§13) c. After 48 hrs. place 0.5 ml NRMCO on each well. (NRMCO is a maintenance overlay medium without phenol red containing 0.1 mg neutral red dye/ml and 2% 15 Cps. methylcellulose.
(§14) d. Incubate plates at 37 C. and read the following day. Antiviral activity should be observed from two parameters. One is actual reduction in the number of plaques and two is the diminution in plaque diameter.
(§15) a. Antiviral activity (AVA) is scored from 0 to +++.
(§16) +++=complete inhibiton of plaque formation

[2] = Biological activities of synthesized versus natural topsentin
P388 leukemia = type: in vivo, BDF1 mice; details: days 1-5, mice
Protocol: P388 leukemia obtained from DBA/2 mice was inoculated ip into BDF1 mice. The inoculum level was 10^6 cells in 0.1 ml. Mice were randomized on day 1 into groups of six mice since bacteriological check of tumor was negative. Test materials were dissolved or suspended in sterile 0.98% NaCl solution with the aid of absolute ethanol and "Tween-80", then administered ip, qD1-5, in a volume of 0.5 ml/mouse. Mice were weighed on days 1 & 5 to provide evidence of toxicity and deaths were recorded daily. Each test included appropriate numbers of untested control mice, one-dose level of the positive reference compound 5-fluorouracil and test material (four dose levels each). Test material were prepared fresh on day 1 and administered daily for five days. Quantity and consistency of test material precluded fresh preparation daily. Doses were derived from prior single treatment acute toxicity assays. The endpoints for therapeutic evaluation were mean and median survival time and long-term survivors on day 30. A 25% percent increase in life span (%ILS) was considered evidence of significant activity.

HSV-1 = HSV-1 antiviral activity assay (Table 4); type: cell-based, Herpes simplex type 1 (HSV-1); design: key to the marks not given beside the values
Protocol: as §1, §2, §3, §4, §5, §6, §7, §8, §9, §10, §11, §12, §13, §14, §15, §16

[3] = system: P388 murine leukemia cells; experiment: P388 in vitro antitumor screen (MTT, 48 h); type: cell-based
Protocol: Cell Culture. P388 murine leukemia cells, obtained from the National Cancer Institute, Bethesda, MD, were maintained at 37° C. in 5% CO2 in humidified air. Growth medium was Roswell Park Memorial Institute medium 1640 supplemented with 10% heat-inactivated horse serum. Stock cultures of P388 cells were grown in antibiotic-free growth medium and were subcultured (10^5 cells/ml, 25 ml cultures in T-25 plastic tissue culture flasks) every 2-3 days. […] An appropriate volume of the dilution was transferred to duplicate wells in a 96-well plate, evaporated to dryness, and 200 μl of growth medium containing cells at a density of 1×10^5 cells/ml was added per well. […] For daily quality control, each technician determines the IC50 of fluorouracil for inhibition of P388 cell proliferation. After 48-hour incubations, cell number was determined with the MTT assay (below), calculated as a percent of untreated cell growth, converted to percent inhibition, and reported to the chemist requesting the screen.
Determination of IC50 Values. The initial determination of an IC50 value for inhibition of P388 cell proliferation with a crude, semipure, or pure sample was made by diluting the sample in methanol to the appropriate concentration and then serial 1:1 dilutions were made in duplicate in a 96-well plate, such that the final concentrations in the assay were […] μg/ml. After solvent was evaporated to dryness, cells were added to each well as described above. After 48-hour incubations, cell numbers were determined with the MTT assay, converted to percent control, plotted versus the log of the sample concentration. Curves were fitted by least-squares linear regression of logit-transformed data and the concentration of sample that inhibited cell proliferation by 50% was reported to the chemist requesting the screen.
MTT Assay for Cell Number. MTT or 3-(4,5-Dimethylthiazol-2-yl)-2,5-diphenyl-tetrazolium bromide is used in an established method (J. Immunol. Methods, 1983, 65: 55-63) to enumerate cells rather than "Coulter counting".

[4] = system: A549 human lung carcinoma cells; experiment: Human tumor cell line assay, A549; type: cell-based; details: 120 h, read-out: A549: cell density compared with control growth; for activity at 500 fg/mL: 0.5 pg/ml
Protocol: (§17) HCT-8 human colon tumor cells are grown in RPM1 1640 medium (GIBCO). A549 human lung carcinoma cells and T47D human breast carcinoma cells are cultured in Dulbecco medium (Biologos, Inc.). All media are supplemented with 10% fetal bovine serum and contain 50 μg/ml gentamicin. All human tumor cell lines are incubated in 5% CO2 at 37° C. and subcultured once a week.
(§18) 2. Incubate in a CO2 -incubator for 48 hours.
(§19) 3. Add compound to each well and incubate for an additional 120 hours.
(§20) 4. Discard medium and stain with methylene blue (HCT-8) or crystal violet (A549 & T47D).
(§21) 5. Compare density of drug-treated well with that of the control (no drug added) as follows: ND (not detectable) >90%, 1+=75-90%, 2+=50-74%, 3+=25-49%, 4+=<25% of control growth.
(§22) Final conc. of Vinblastine or Vincristine control (use 2 μl/assay).
(§23) For solvents other than water, allow solvent to evaporate from tube or well in hood. Always run a solvent control in duplicate in the last two wells of each plate or four tubes for each rack of 72 or fewer tubes. Also run four wells or tubes with media and cells only per run of plates or tubes. When using volumes of aqueous solutions greater than 200 ml, dry sample and bring to desired concentration in media.

[5] = system: T47D human breast carcinoma cells; experiment: Human tumor cell line assay, T47D; type: cell-based; details: 120 h, read-out: T47D: cell density compared with control growth
Protocol: as §17, §18, §19, §20, §21, §22, §23

CV-1 cells [6] = experiment: Cytotoxicity in antiviral disc assay (Table 3); type: cell-based, African green monkey; design: key: 0 = no cytotoxicity, 16 = complete cell destruction
Protocol: (§24) a. Herpes simplex type 1 (HSV-1) replicates in the CV-1 cell line. CV-1 is a fibroblast-like cell culture derived from primary African green monkey cells. a. For drug evaluation wet filter paper discs (6 mm dia.) with approx. 0.02 ml of test compound. Allow solvent to evaporate for 20-30 mins. at ambient temperature, then place discs in the well containing CV-1 cells, virus and MCO. b. Incubate tissue culture plates for 48 hrs. at 37 C. c. After 48 hrs. place 0.5 ml NRMCO on each well. (NRMCO is a maintenance overlay medium without phenol red containing 0.1 mg neutral red dye/ml and 2% 15 Cps. methylcellulose. b. Cytotoxicity (Cyt) 0=no visual or microscopic cytotoxicity 16=complete cell destruction 8, 10, 12, 14=partial cytotoxicity.

CV-1 cells [7] = experiment: Cytotoxicity in antiviral assay (Table 4); type: cell-based, African green monkey; design: key: 0 = no cytotoxicity, 16 = complete cell destruction
Protocol: as §24

[8] = Mus musculus, P388 murine leukemia cells, 48 h, MTT

SMILES: O=C(c1nc(-c2c[nH]c3ccccc23)c[nH]1)c1c[nH]c2cc(O)ccc12 [Compound 1, Topsentin]
- AVA ([1]; Table 3, 50 ug/disk): +
- AVA ([1]; Table 3, 200 ug/disk): ++
- biological activities compared with natural topsentin [2]: identical with natural topsentin in spectral data and in biological activities
- Survival % T/C (P388 leukemia; 37.5 mg/kg ip): 111%
- Survival % T/C (P388 leukemia; 75 mg/kg ip): 116%
- Survival % T/C (P388 leukemia; 150 mg/kg ip): 132%
- Survival % T/C (P388 leukemia; 300 mg/kg ip): 110%
- AVA (HSV-1; Table 4, 2 μg/disk): +++
- AVA (HSV-1; Table 4, 20 μg/disk): +++
- IC50 [3, 8]: 2 µg/mL (≈ 5.84 µM)
- activity at 500 fg/mL [4]: > 90%
- activity at 50 pg/mL [4]: < 25%
- activity at 5 pg/mL [5]: 50 to 74%
- activity at 20 pg/mL [5]: < 25%
- activity at 50 pg/mL [5]: < 25%
- activity at 500 fg/mL [5]: > 90%
- CYT. (CV-1 cells [6]; Table 3, 20 ug/disk): 0
- CYT. (CV-1 cells [6]; Table 3, 50 ug/disk): 0
- CYT. (CV-1 cells [6]; Table 3, 200 ug/disk): 0
- CYT. (CV-1 cells [7]; Table 4, 0.2 μg/disk): 0
- CYT. (CV-1 cells [7]; Table 4, 2 μg/disk): 0
- CYT. (CV-1 cells [7]; Table 4, 20 μg/disk): 0

SMILES: O=C(c1nc(-c2c[nH]c3cc(Br)ccc23)c[nH]1)c1c[nH]c2cc(O)ccc12 [Compound 2, Bromotopsentin]
- AVA ([1]; Table 3, 200 ug/disk): ++
- Survival % T/C (P388 leukemia; 37.5 mg/kg ip): 105%
- Survival % T/C (P388 leukemia; 75 mg/kg ip): 111%
- Survival % T/C (P388 leukemia; 150 mg/kg ip): 116%
- AVA (HSV-1; Table 4, 10 μg/disk): ++
- IC50 [3, 8]: 7 µg/mL (≈ 16.6 µM)
- activity at 500 fg/mL [4]: > 90%
- activity at 5 pg/mL ([4]; 5 pg/ml): > 90%
- activity at 50 pg/mL [4]: < 25%
- activity at 5 pg/mL [5]: 50 to 74%
- activity at 20 pg/mL [5]: 25 to 49%
- activity at 50 pg/mL [5]: < 25%
- activity at 500 fg/mL [5]: > 90%
- CYT. (CV-1 cells [6]; Table 3, 50 ug/disk): 0
- CYT. (CV-1 cells [6]; Table 3, 200 ug/disk): 0
- CYT. (CV-1 cells [7]; Table 4, 5 μg/disk): 0
- CYT. (CV-1 cells [7]; Table 4, 10 μg/disk): 0

SMILES: O=C(C1=NC(c2c[nH]c3ccccc23)CN1)c1c[nH]c2cc(Br)ccc12 (stereo not drawn) [Compound 3, 4,5-dihydro-6"-deoxybromotopsentin]
- AVA (HSV-1; Table 4, 20 μg/disk): +++
- P388 IC50 ([3]; P388 murine leukemia cells, 48 h, MTT): 4.0 µg/mL

SMILES: O=C(c1nc(-c2c[nH]c3cc(O)ccc23)c[nH]1)c1c[nH]c2ccccc12 [Compound 4, Isotopsentin]
- AVA (HSV-1; Table 4, 20 μg/disk): +++
- IC50 [3, 8]: 4 µg/mL (≈ 11.7 µM)
- CYT. (CV-1 cells [7]; Table 4, 2 μg/disk): 0
- CYT. (CV-1 cells [7]; Table 4, 20 μg/disk): 0

SMILES: O=C(c1nc(-c2c[nH]c3cc(O)ccc23)c[nH]1)c1c[nH]c2cc(O)ccc12 [Compound 5, Hydroxytopsentin]
- AVA (HSV-1; Table 4, 20 μg/disk): ++
- IC50 [3, 8]: 0.3 µg/mL (≈ 0.837 µM)
- CYT. (CV-1 cells [6]; Table 3, 20 ug/disk): 0
- CYT. (CV-1 cells [7]; Table 4, 2 μg/disk): 0
- CYT. (CV-1 cells [7]; Table 4, 20 μg/disk): 0

- IC50 [3, 8]: 2.5 µg/mL (≈ 7.3 µM)
SMILES: O=C(c1nc(-c2c[nH]c3ccccc23)c[nH]1)c1c[nH]c2ccc(O)cc12 [Compound 7, Neotopsentin]
- CYT. (CV-1 cells [6]; Table 3, 20 ug/disk): 0
- CYT. (CV-1 cells [7]; Table 4, 20 μg/disk): 0

- IC50 [3, 8]: 1.8 µg/mL (≈ 5.26 µM)
SMILES: O=C(c1nc(-c2c[nH]c3ccc(O)cc23)c[nH]1)c1c[nH]c2ccccc12 [Compound 8, Neoisotopsentin]
- CYT. (CV-1 cells [6]; Table 3, 20 ug/disk): 0
- CYT. (CV-1 cells [7]; Table 4, 20 μg/disk): 0

- IC50 [3, 8]: > 20 µg/mL
SMILES: O=C(c1nc(-c2c[nH]c3ccc(O)cc23)c[nH]1)c1c[nH]c2ccc(O)cc12 [Compound 9, Neohydroxytopsentin]
- CYT. (CV-1 cells [6]; Table 3, 20 ug/disk): 0
- CYT. (CV-1 cells [7]; Table 4, 20 μg/disk): 0

SMILES: O=c1[nH]cc(F)c(=O)[nH]1 [fluorouracil, 5-fluorouracil, reference compound]
- inhibition at 0.2 µg/mL ([3]; Mus musculus, P388, read-out: inhibition of cell replication): ~95%
